Patent US6043228A, “O^6 -substituted guanine derivatives, a process for their preparation and their use in treating tumor cells” (Cancer Research Campaign Technology Limited, priority 1993, dated 2000)

Key:
recombinant human ATase = molecular target: T1, recombinant human ATase (Homo sapiens, UniProt P16455); test: In vitro ATase inactivation assay (incubation with inactivators and ATase assay); type: biochemical; conditions: recombinant human ATase, standard conditions
T1 construct: made in house
T1 sequence (P16455 1-207): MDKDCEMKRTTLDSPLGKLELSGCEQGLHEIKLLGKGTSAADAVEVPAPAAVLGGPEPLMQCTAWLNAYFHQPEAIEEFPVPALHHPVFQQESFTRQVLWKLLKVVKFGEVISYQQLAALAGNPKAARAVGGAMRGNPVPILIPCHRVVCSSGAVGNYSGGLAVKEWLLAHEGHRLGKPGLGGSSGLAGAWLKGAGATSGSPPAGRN
Procedure: The cDNA cloning and overexpression of the human ATase has been reported previously^23. Purification of the recombinant proteins was achieved either by affinity chromatography through a DNA-cellulose column as described by Wilkinson et al.,^25, 26 or by DEAE-cellulose ion-exchange chromatography. For the latter, the ATase protein was partially purified by ammonium sulphate precipitation (30-60%) and dialysed against 10 mM Tris-HCl pH 7.5, 1 mM DTT, 2 mM EDTA, 10% glycerol, before loading on a DEAE-cellulose column. The ATase was then eluted with a 0-0.1 M NaCl gradient.
Compounds to be tested were dissolved in DMSO to a final concentration of 10 mM and diluted just before use in buffer I containing 1 mg/ml bovine serum albumin (IBSA). Recombinant ATase was diluted in IBSA and titrated in order that the reaction be conducted under ATase, and not substrate, limiting conditions. […] Following acid hydrolysis of the DNA as previously described^21 the [^3 H]-methylated protein was recovered and quantitated by liquid scintillation counting. Samples were typically assayed in duplicate and experiments repeated several times. I50 is the concentration of inactivator required to produce a 50% reduction in ATase activity.

ATase = test: Inactivation of ATase in mammalian cells, summary over human, rat and Chinese hamster cell lines; type: cell-based; conditions: Table 5
Procedure: Mammalian cells were cultured under standard conditions. For example, Raji (a human lymphoblastoid cell line from a Burkitt's lymphoma) cells were grown in suspension culture in RPMI medium supplemented with 10% horse serum. […]
Cells were diluted to 10^6 /ml in culture medium containing either the appropriate concentration of inactivator or an equivalent volume of vehicle (DMSO). […] ATase activity was determined as described above, in duplicate sonicated cell extracts and expressed as the, percentage activity remaining based on that present in the untreated controls (for example 350-450 fm/mg in Raji cells).

[1] = tested on: Xeroderma pigmentosum cells; test: Sensitivity of mammalian cells to the inactivators alone: XP cells; type: cell-based, human; conditions: inactivator alone (FIG. 6)
Procedure: (§1) In order to assess the effects on cell growth alone, Xeroderma pigmentosum cells and Chinese Hamster V79 cells were exposed to increasing concentrations (up to 600 μM) of selected inactivators for 2 h at 37°. In some cases, the inactivators were allowed to undergo hydrolysis at 37° C. for 20 hours and then added to Raji cells in order to assess the extent to which the decomposition products of the agents might inhibit cell growth. After 6 days the extent of cell growth was determined as described above.

[2] = as above; type: cell-based, human; conditions: human, xp cells; FIG. 6; read-out: dose required for growth inhibition relative to that required for ATase inactivation
Procedure: as §1

[3] = Sensitivity of mammalian cells to the inactivators alone: V79 cells; type: cell-based, Chinese hamster; conditions: hamster, v79 cells; FIG. 5; read-out: growth inhibitory dose in V79 cells relative to I50 dose
Procedure: as §1

[4] = tested on: Chinese Hamster V79 cells; test: as above; type: cell-based
Procedure: as §1

Structure (SMILES): Nc1nc(OCc2ccco2)c2nc[nH]c2n1 [B.4203, 0^6 -furfurylguanine]
- ATase inactivation in vitro, result in words (recombinant human ATase): not as effective as BeG
- effectiveness relative to BeG in the cell lines used (ATase): up to 7 times
- growth inhibition / toxicity to XP cells, in words [1]: toxic
- selectivity ratio [2]: ≥ 100
- selectivity ratio [3]: ≥ 100
- toxic concentration in V79 cells relative to concentration sensitizing to BCNU ([4]; FIGS. 5 & 6): at least 100 times
- dose producing some growth inhibition of V79 cells ([4]; inactivator alone, 2 h (FIG. 5)): > 100 µM
- growth inhibition / toxicity to V79 cells, in words ([4]; inactivator alone, up to 600 μM): toxic
